≈ marks a conversion by molar mass, not a printed value.
Key:
Assay type in all cases: cell-based
E. coli UBMS 88-1 Tet B = assay: microbe, parasite or virus in culture; conditions: E. coli UBMS 88-1 Tet B; 18 hours at 35° C.
[1] = tested on: E. coli MC 4100 Tet sens.; assay: MIC, agar dilution
E. coli UBMS 89-1 Tet M = assay: microbe, parasite or virus in culture; conditions: E. coli UBMS 89-1 Tet M
E. coli BAJ9003 IMP MUT = assay: microbe, parasite or virus in culture; conditions: E. coli BAJ9003 IMP MUT
E. coli #311 (MP) = assay: MIC, agar dilution; conditions: E. coli #311 (MP)
E. coli ATCC 25922 = assay: MIC, agar dilution; conditions: E. coli ATCC 25922
E. coli J3272 Tet D = assay: microbe, parasite or virus in culture; conditions: E. coli J3272 Tet D
S. mariescens FPOR 8733 = assay: MIC, agar dilution
[2] = tested on: X. maltophilia NEMC 87210; assay: MIC, agar dilution
[3] = tested on: Ps. acruginosa ATCC 27853; assay: MIC, agar dilution; conditions: Ps. acruginosa ATCC 27853
S. aureus NEMC 8769 = assay: MIC, agar dilution; conditions: S. aureus NEMC 8769
S. aureus UBMS 88-4 = assay: MIC, agar dilution; conditions: S. aureus UBMS 88-4
[4] = tested on: S. aureus UBMS 88-5 Tet M; assay: microbe, parasite or virus in culture; conditions: S. aureus UBMS 88-5 Tet M
[5] = tested on: S. aureus UBMS 88-7 Tet K; assay: microbe, parasite or virus in culture; conditions: S. aureus UBMS 88-7 Tet K
[6] = tested on: S. aureus UBMS 90-1 Tet M; assay: microbe, parasite or virus in culture; conditions: S. aureus UBMS 90-1 Tet M
S. aureus UBMS 90-3 = assay: MIC, agar dilution; conditions: S. aureus UBMS 90-3
[7] = tested on: S. aureus UBMS 90-2 Tet M; assay: microbe, parasite or virus in culture; conditions: S. aureus UBMS 90-2 Tet M
S. aureus IVES 2943 = assay: MIC, agar dilution; conditions: S. aureus IVES 2943
S. aureus ROSE (MP) = assay: MIC, agar dilution; conditions: S. aureus ROSE (MP)
S. aureus SMITH (MP) = assay: MIC, agar dilution; conditions: S. aureus SMITH (MP)
S. aureus IVES 1 983 = assay: MIC, agar dilution; conditions: S. aureus IVES 1 983
S. aureus ATCC 29213 = assay: MIC, agar dilution; conditions: S. aureus ATCC 29213
[8] = tested on: S. hemolyticus AVHAH 88-3; assay: MIC, agar dilution; conditions: S. hemolyticus AVHAH 88-3
Enterococcus 12201 = assay: MIC, agar dilution; conditions: Enterococcus 12201
E. faecalis ATCC 29212 = assay: MIC, agar dilution; conditions: E. faecalis ATCC 29212
E. coli PRP1 Tet A = assay: microbe, parasite or virus in culture; conditions: E. coli PRP1 Tet A
[9] = tested on: E. coli MC 4100 TNIOC Tet B; assay: microbe, parasite or virus in culture; conditions: E. coli MC 4100 TNIOC Tet B
[10] = tested on: E. coli UBMS 89-2 Tet sens.; assay: MIC, agar dilution; conditions: E. coli UBMS 89-2 Tet sens.
E. coli J2175 = assay: MIC, agar dilution; conditions: E. coli J2175
E. coli UBMS 90-4 Tet M = assay: microbe, parasite or virus in culture; conditions: E. coli UBMS 90-4 Tet M
E. coli UBMS 90-5 = assay: MIC, agar dilution
E. coli J3272 Tet C = assay: microbe, parasite or virus in culture; conditions: E. coli J3272 Tet C

Compound	MIC (E. coli UBMS 88-1 Tet B)	MIC [1]	MIC (E. coli UBMS 89-1 Tet M)	MIC (E. coli BAJ9003 IMP MUT)	MIC (E. coli #311 (MP))	MIC (E. coli ATCC 25922)	MIC (E. coli J3272 Tet D)	MIC (S. mariescens FPOR 8733)	MIC [2]	MIC [3]	MIC (S. aureus NEMC 8769)	MIC (S. aureus UBMS 88-4)	MIC [4]	MIC [6]	MIC (S. aureus UBMS 90-3)	MIC [7]	MIC (S. aureus SMITH (MP))	MIC (S. aureus ATCC 29213)	MIC [8]	MIC (E. faecalis ATCC 29212)	further results
CN(C)c1cc(NC(=O)CNCCCCO)c(O)c2c1C[C@H]1C[C@H]3[C@H](N(C)C)C(O)=C(C(N)=O)C(=O)[C@@]3(O)C(O)=C1C2=O [R]	> 32 µg/mL	8 µg/mL (≈ 13.3 µM)	32 µg/mL (≈ 53.2 µM)	4 µg/mL (≈ 6.65 µM)	32 µg/mL (≈ 53.2 µM)	32 µg/mL (≈ 53.2 µM)	8 µg/mL (≈ 13.3 µM)	8 µg/mL (≈ 13.3 µM)	8 µg/mL (≈ 13.3 µM)	> 32 µg/mL	8 µg/mL (≈ 13.3 µM)	8 µg/mL (≈ 13.3 µM)	32 µg/mL (≈ 53.2 µM)	32 µg/mL (≈ 53.2 µM)	8 µg/mL (≈ 13.3 µM)	16 µg/mL (≈ 26.6 µM)	8 µg/mL (≈ 13.3 µM)	16 µg/mL (≈ 26.6 µM)	32 µg/mL (≈ 53.2 µM)	8 µg/mL (≈ 13.3 µM)	MIC [5]: 32 µg/mL (≈ 53.2 µM); MIC (S. aureus IVES 2943): > 32 µg/mL; MIC (S. aureus ROSE (MP)): > 32 µg/mL; MIC (S. aureus IVES 1 983): > 32 µg/mL; MIC (Enterococcus 12201): 8 µg/mL (≈ 13.3 µM)
CN(C)c1cc(NC(=O)CNCCF)c(O)c2c1CC1CC3C(N(C)C)C(O)=C(C(N)=O)C(=O)C3(O)C(O)=C1C2=O (stereo not drawn) [T, [4S-(4alpha,12aalpha)]-4,7-Bis(dimethylamino)-9-[[[(2-fluoroethyl)amino]acetyl]amino]-1,4,4a,5,5a,6,11,12a-octahydro3,10,12,12a-tetrahydroxy-1,11-dioxo-2-naphthacenecarboxamide]	16 µg/mL (≈ 27.8 µM)	2 µg/mL (≈ 3.47 µM)	8 µg/mL (≈ 13.9 µM)	1 µg/mL (≈ 1.74 µM)	16 µg/mL (≈ 27.8 µM)	8 µg/mL (≈ 13.9 µM)	8 µg/mL (≈ 13.9 µM)	> 32 µg/mL	16 µg/mL (≈ 27.8 µM)	> 32 µg/mL	4 µg/mL (≈ 6.95 µM)	4 µg/mL (≈ 6.95 µM)	4 µg/mL (≈ 6.95 µM)	4 µg/mL (≈ 6.95 µM)	2 µg/mL (≈ 3.47 µM)	4 µg/mL (≈ 6.95 µM)	1 µg/mL (≈ 1.74 µM)	4 µg/mL (≈ 6.95 µM)	8 µg/mL (≈ 13.9 µM)	1 µg/mL (≈ 1.74 µM)	MIC (E. coli PRP1 Tet A): > 32 µg/mL; MIC [9]: 16 µg/mL (≈ 27.8 µM); MIC [10]: 16 µg/mL (≈ 27.8 µM); MIC (E. coli J2175): 16 µg/mL (≈ 27.8 µM); MIC (E. coli UBMS 90-4 Tet M): 8 µg/mL (≈ 13.9 µM); MIC (E. coli UBMS 90-5): 16 µg/mL (≈ 27.8 µM); MIC (Enterococcus 12201): 2 µg/mL (≈ 3.47 µM)
CN(C)c1cc(NC(=O)CNCCN2CCCCC2)c(O)c2c1C[C@H]1C[C@H]3[C@H](N(C)C)C(O)=C(C(N)=O)C(=O)[C@@]3(O)C(O)=C1C2=O [U, [4S-(4alpha,12alpha)]-4,7-Bis(dimethylamino)-1,4,4a,5,5a,6,11,12a-octahydro3,10,12,12a-tetrahydroxy-1,11-dioxo-9-[[[[2-(1-piperidinyl)ethyl]amino]acetyl]amino]-2-naphthacenecarboxamide]	> 32 µg/mL	4 µg/mL (≈ 6.24 µM)	16 µg/mL (≈ 25 µM)	2 µg/mL (≈ 3.12 µM)	16 µg/mL (≈ 25 µM)	16 µg/mL (≈ 25 µM)	–	> 32 µg/mL	16 µg/mL (≈ 25 µM)	> 32 µg/mL	8 µg/mL (≈ 12.5 µM)	8 µg/mL (≈ 12.5 µM)	16 µg/mL (≈ 25 µM)	32 µg/mL (≈ 49.9 µM)	8 µg/mL (≈ 12.5 µM)	8 µg/mL (≈ 12.5 µM)	8 µg/mL (≈ 12.5 µM)	8 µg/mL (≈ 12.5 µM)	32 µg/mL (≈ 49.9 µM)	8 µg/mL (≈ 12.5 µM)	MIC (E. coli PRP1 Tet A): > 32 µg/mL; MIC [9]: 32 µg/mL (≈ 49.9 µM); MIC (E. coli J3272 Tet C): 16 µg/mL (≈ 25 µM); MIC [10]: 32 µg/mL (≈ 49.9 µM); MIC (E. coli J2175): 32 µg/mL (≈ 49.9 µM); MIC (E. coli UBMS 90-4 Tet M): 16 µg/mL (≈ 25 µM); MIC (E. coli UBMS 90-5): 16 µg/mL (≈ 25 µM); MIC [5]: 16 µg/mL (≈ 25 µM); MIC (S. aureus IVES 2943): > 32 µg/mL; MIC (S. aureus ROSE (MP)): > 32 µg/mL; MIC (S. aureus IVES 1 983): > 32 µg/mL

From patent US5328902A, “7-(substituted)-9-[(substituted glycyl)amido]-6-demethyl-6-deoxytetracyclines” (American Cyanamid Co., priority 1992, dated 1994)
